Assay results reported in patent US9359308B2, “Pyrazine kinase inhibitors” (Portola Pharmaceuticals, Inc., priority 2011, dated 2016).

target: T1, full length active recombinant SYK enzyme (Homo sapiens, UniProt P43405); assay: Inhibition of Syk tyrosine phosphorylation activity (LANCE TR-FRET kinase assay); type: biochemical; conditions: activity in the Syk assays, class symbols
T1 construct: full length active recombinant SYK enzyme (Millipore, Calif.); purchased Millipore
Method in brief: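 1 nM full-length active recombinant SYK phosphorylated 550 nM biotin-DEEDYESP-OH with 100 μM ATP in 50 mM Tris pH 7.5, 5 mM MgCl2, 1 mM DTT and 3% DMSO for 1 h at room temperature. After EDTA quench, Eu-anti-phosphotyrosine/SA-APC TR-FRET was read after 1 h. IC50s came from non-linear regression.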

| IC50 [nM] | SMILES |
| --- | --- |
| 1 to 10 | CC[C@@H](Nc1cnc(C(N)=O)c(Nc2cc(C3CC3)ns2)n1)C(N)=O [Example 238, (R)-5-(1-amino-1-oxobutan-2-ylamino)-3-(3-cyclopropylisothiazol-5-ylamino)pyrazine-2-carboxamide] |
| 1 to 10 | C[C@@H](Nc1cnc(C(N)=O)c(Nc2cc(C3CC3)ns2)n1)C(N)=O [Example 239, (R)-5-(1-amino-1-oxopropan-2-ylamino)-3-(3-cyclopropylisothiazol-5-ylamino)pyrazine-2-carboxamide] |
| 10 to 100 | CC[C@@H](Nc1cnc(C(N)=O)c(Nc2cc(C(C)C)ns2)n1)C(N)=O [Example 240, (R)-5-(1-amino-1-oxobutan-2-ylamino)-3-(3-isopropylisothiazol-5-ylamino)pyrazine-2-carboxamide] |
| 1 to 10 | CC(C)c1cc(Nc2nc(N[C@H](C)C(N)=O)cnc2C(N)=O)sn1 [Example 241, (R)-5-(1-amino-1-oxopropan-2-ylamino)-3-(3-isopropylisothiazol-5-ylamino)pyrazine-2-carboxamide] |
| 1 to 10 | NC(=O)c1ncc(N[C@@H]2CCCC(F)(F)[C@@H]2N)nc1Nc1cc(C2CC2)ns1 [Example 242, 5-((1R,2R)-2-amino-3,3-difluorocyclohexylamino)-3-(3-cyclopropylisothiazol-5-ylamino)pyrazine-2-carboxamide] |
| 1 to 10 | C[C@@H](Nc1cnc(C(N)=O)c(Nc2cnc3ccc(F)cc3c2)n1)C(N)=O [Example 243, (R)-5-(1-amino-1-oxopropan-2-ylamino)-3-(6-fluoroquinolin-3-ylamino)pyrazine-2-carboxamide] |
| 1 to 10 | CC(C)(C)[C@@H](Nc1cnc(C(N)=O)c(Nc2cc(C3CC3)ns2)n1)C(N)=O [Example 244, (R)-5-(1-amino-3,3-dimethyl-1-oxobutan-2-ylamino)-3-(3-cyclopropylisothiazol-5-ylamino)pyrazine-2-carboxamide] |
| 1 to 10 | CN(C)C(=O)c1cc(Nc2nc(N[C@@H]3CCCC[C@@H]3N)cnc2C(N)=O)sn1 [Example 248, 5-(6-((1R,2S)-2-aminocyclohexylamino)-3-carbamoylpyrazin-2-ylamino)-N,N-dimethylisothiazole-3-carboxamide] |
| 100 to 1000 | CC[C@@H](Nc1cnc(C(N)=O)c(Nc2cc(C(=O)N(C)C)ns2)n1)C(N)=O [Example 249, (R)-5-(6-(1-amino-1-oxobutan-2-ylamino)-3-carbamoylpyrazin-2-ylamino)-N,N-dimethylisothiazole-3-carboxamide] |
| 1 to 10 | NC(=O)c1ncc(N[C@@H]2CCCC[C@@H]2N)nc1Nc1cc(CO)ns1 [Example 250, 5-((1R,2S)-2-aminocyclohexylamino)-3-(3-(hydroxymethyl)isothiazol-5-ylamino)pyrazine-2-carboxamide] |
| 10 to 100 | CC[C@@H](Nc1cnc(C(N)=O)c(Nc2cc(CO)ns2)n1)C(N)=O [Example 251, (R)-5-(1-amino-1-oxobutan-2-ylamino)-3-(3-(hydroxymethyl)isothiazol-5-ylamino)pyrazine-2-carboxamide] |
| 100 to 1000 | CC[C@@H](Nc1cnc(C(N)=O)c(Nc2cc(CN3CCOCC3)ns2)n1)C(N)=O [Example 254, (R)-5-(1-amino-1-oxobutan-2-ylamino)-3-(3-(morpholinomethyl)isothiazol-5-ylamino)pyrazine-2-carboxamide] |
| 10 to 100 | CC[C@@H](Nc1cnc(C(N)=O)c(Nc2cc(COC)ns2)n1)C(N)=O [Example 257, (R)-5-(1-amino-1-oxobutan-2-ylamino)-3-(3-(methoxymethyl)isothiazol-5-ylamino)pyrazine-2-carboxamide] |
| 100 to 1000 | CC[C@@H](Nc1cnc(C(N)=O)c(Nc2cnn(C3CC3)c2)n1)C(N)=O [Example 260, (R)-5-(1-amino-1-oxobutan-2-ylamino)-3-(1-cyclopropyl-1H-pyrazol-4-ylamino)pyrazine-2-carboxamide] |
| 10 to 100 | CC[C@@H](Nc1cnc(C(N)=O)c(Nc2ccnc(F)c2)n1)C(N)=O [Example 264, (R)-5-(1-amino-1-oxobutan-2-ylamino)-3-(2-fluoropyridin-4-ylamino)pyrazine-2-carboxamide] |
| 10 to 100 | Cc1cc(Nc2nc(N[C@H](CC(C)(C)C)C(N)=O)cnc2C(N)=O)sn1 [Example 266, (R)-5-(1-amino-4,4-dimethyl-1-oxopentan-2-ylamino)-3-(3-methylisothiazol-5-ylamino)pyrazine-2-carboxamide] |
| < 1 | CC[C@@H](Nc1cnc(C(N)=O)c(Nc2snc3sccc23)n1)C(N)=O [Example 271, (R)-5-(1-amino-1-oxobutan-2-ylamino)-3-(thieno[2,3-c]isothiazol-3-ylamino)pyrazine-2-carboxamide] |

Further lines, the molecule ahead of its results:

| SMILES | IC50 [nM] |
| --- | --- |
| CC(C)(C)C[C@@H](Nc1cnc(C(N)=O)c(Nc2cnc3cccnc3c2)n1)C(N)=O [Example 246, (R)-3-(1,5-naphthyridin-3-ylamino)-5-(1-amino-4,4-dimethyl-1-oxopentan-2-ylamino)pyrazine-2-carboxamide] | 1 to 10 |
| CC(C)(C)C[C@@H](Nc1cnc(C(N)=O)c(Nc2cncc(F)c2)n1)C(N)=O [Example 247, (R)-5-(1-amino-4,4-dimethyl-1-oxopentan-2-ylamino)-3-(5-fluoropyridin-3-ylamino)pyrazine-2-carboxamide] | 1 to 10 |
| NC(=O)c1ncc(N[C@@H]2CCCC[C@@H]2N)nc1Nc1snc2sccc12 [Example 252, 5-((1R,2S)-2-aminocyclohexylamino)-3-(thieno[2,3-c]isothiazol-3-ylamino)pyrazine-2-carboxamide] | < 1 |
| COc1cncc(Nc2nc(N[C@H](CC(C)(C)C)C(N)=O)cnc2C(N)=O)c1 [Example 253, (R)-5-(1-amino-4,4-dimethyl-1-oxopentan-2-ylamino)-3-(5-methoxypyridin-3-ylamino)pyrazine-2-carboxamide] | 1 to 10 |
| NC(=O)c1ncc(N[C@@H]2CCCC[C@@H]2N)nc1Nc1cc(CN2CCOCC2)ns1 [Example 255, 5-((1R,2S)-2-aminocyclohexylamino)-3-(3-(morpholinomethyl)isothiazol-5-ylamino)pyrazine-2-carboxamide] | 10 to 100 |
| COc1cc(Nc2nc(N[C@H](CC(C)(C)C)C(N)=O)cnc2C(N)=O)ccn1 [Example 256, (R)-5-(1-amino-4,4-dimethyl-1-oxopentan-2-ylamino)-3-(2-methoxypyridin-4-ylamino)pyrazine-2-carboxamide] | 1 to 10 |
| NC(=O)c1ncc(N[C@@H]2CCCC[C@@H]2N)nc1Nc1cnn(C2CC2)c1 [Example 258, 5-((1R,2S)-2-aminocyclohexylamino)-3-(1-cyclopropyl-1H-pyrazol-4-ylamino)pyrazine-2-carboxamide] | 10 to 100 |
| CC(C)(C)C[C@@H](Nc1cnc(C(N)=O)c(Nc2cnn(C3CC3)c2)n1)C(N)=O [Example 259, (R)-5-(1-amino-4,4-dimethyl-1-oxopentan-2-ylamino)-3-(1-cyclopropyl-1H-pyrazol-4-ylamino)pyrazine-2-carboxamide] | 10 to 100 |
| CC(C)(C)C[C@@H](Nc1cnc(C(N)=O)c(Nc2snc3sccc23)n1)C(N)=O [Example 261, (R)-5-(1-amino-4,4-dimethyl-1-oxopentan-2-ylamino)-3-(thieno[2,3-c]isothiazol-3-ylamino)pyrazine-2-carboxamide] | 1 to 10 |
| NC(=O)c1ncc(N[C@@H]2CCCC[C@@H]2N)nc1Nc1cnn(-c2ccccc2)c1 [Example 262, 5-((1R,2S)-2-aminocyclohexylamino)-3-(1-phenyl-1H-pyrazol-4-ylamino)pyrazine-2-carboxamide] | < 1 |
| NC(=O)c1ncc(N[C@@H]2CCCC[C@@H]2N)nc1Nc1ccnc(F)c1 [Example 263, 5-((1R,2S)-2-aminocyclohexylamino)-3-(2-fluoropyridin-4-ylamino)pyrazine-2-carboxamide] | 1 to 10 |
| CC(C)(C)C[C@@H](Nc1cnc(C(N)=O)c(Nc2ccnc(F)c2)n1)C(N)=O [Example 265, (R)-5-(1-amino-4,4-dimethyl-1-oxopentan-2-ylamino)-3-(2-fluoropyridin-4-ylamino)pyrazine-2-carboxamide] | 1 to 10 |
| NC(=O)c1ncc(N[C@@H]2CCCC[C@@H]2N)nc1Nc1snc2ccsc12 [Example 267, 5-((1R,2S)-2-aminocyclohexylamino)-3-(thieno[3,2-c]isothiazol-3-ylamino)pyrazine-2-carboxamide] | 1 to 10 |
| CC[C@@H](Nc1cnc(C(N)=O)c(Nc2snc3ccsc23)n1)C(N)=O [Example 268, (R)-5-(1-amino-1-oxobutan-2-ylamino)-3-(thieno[3,2-c]isothiazol-3-ylamino)pyrazine-2-carboxamide] | 1 to 10 |
| CC[C@@H](Nc1cnc(C(N)=O)c(Nc2snc3ccccc23)n1)C(N)=O [Example 269, (R)-5-(1-amino-1-oxobutan-2-ylamino)-3-(benzo[c]isothiazol-3-ylamino)pyrazine-2-carboxamide] | < 1 |
| NC(=O)c1ncc(N[C@@H]2CCCC[C@@H]2N)nc1Nc1snc2ccccc12 [Example 270, 5-((1R,2S)-2-aminocyclohexylamino)-3-(benzo[c]isothiazol-3-ylamino)pyrazine-2-carboxamide] | < 1 |
| Cc1cccc(Nc2nc(N[C@@H]3CCCC[C@@H]3N)cnc2C(N)=O)c1 [Example 275, 5-((1R,2S)-2-aminocyclohexylamino)-3-(m-tolylamino)pyrazine-2-carboxamide] | < 1 |
| NC(=O)c1ncc(N[C@@H]2CCCC[C@@H]2N)nc1Nc1ccc(-n2cccn2)cc1 [Example 276, 3-(4-(1H-pyrazol-1-yl)phenylamino)-5-((1R,2S)-2-aminocyclohexylamino)pyrazine-2-carboxamide] | 1 to 10 |
| CN(C)C(=O)c1ccc(Nc2nc(N[C@@H]3CCCC[C@@H]3N)cnc2C(N)=O)cc1 [Example 277, 5-((1R,2S)-2-aminocyclohexylamino)-3-(4-(dimethylcarbamoyl)phenylamino)pyrazine-2-carboxamide] | 10 to 100 |
